Read-outs that look alike come from different tables or passages of the source.
Experiments:
[1] = tested on: antibodies in serum of cattle infected with M. avium paratuberculosis (MAP); assay type: binding; conditions: serum 1:20, IgG Fc secondary antibody, average of four replicates
[2] = tested on: antibodies in serum of cattle infected with bovine M. tuberculosis (B tb); test: ELISA assay of antibody binding to antigen, serum of cattle naturally infected with bovine TB
Protocol: The binding of antibodies in serum of cattle infected with M. tuberculosis or M. avium with the antigens detailed in example 3 was measured in an ELISA assay.
ELISA assays were carried out as known to those practiced in the art using 96 well plates. In the first procedure, the ELISA assay was carried out on 96-well microplates and the purified antigens were dissolved in n-hexane at a concentration of 62.5 μg/ml. The antigen solutions were diluted and 50 μl and placed in each well. The plates were left to dry at room temperature overnight. Blocking was done with 0.5% casein/PBS (400 μl/well) and the plates are left to incubate at 25° C. for 1 h. The casein was aspirated using the LT-3500 plate washer and the plates flicked dry. Then the serum (1:20 dilution in 0.5% casein/PBS, pH 7.4) was added to the plate (50 μl/well) and left to incubate at 25° C. for 1 h. The serum was aspirated and washed three times with (casein/PBS, 400 μl/well) using the same plate washer and the plates were flicked dry again. After that, the secondary antibody, in the example given IgG Fc (1:1000 dilution in 0.5% casein/PBS) was added to the plate (50 μl/well) and the plates were left to incubate at 25° C. for 30 min. The plates were washed three times again with (casein/PBS, 400 μl/well) and dried. Then, the OPD substrate was added to the plates, which were left to incubate at 25° C. for 30 min. Finally, 2.5 M H2SO4 (50 μl/well) was added and the absorbances of each well were read at 492, 450 and 630 nm using an LT-4000 plate reader.
Serum used in this work was obtained from cattle infected with MAP, diagnosed as naturally infected with bovine TB, or known not to be infected using standard assays.
All measurements were taken as four replicates unless otherwise stated. These were averaged to provide the data in the table which are optical density measurements at 492 nm.

[3] = tested on: antibodies in serum of cattle known not to be infected; assay type: binding
[4] = serum MAP (experimentally infected)
[5] = VLA (Naturally infected) bovis serum sample 1
[6] = VLA (Naturally infected) bovis serum sample 2
[7] = VLA (Naturally infected) bovis serum sample 3
[8] = VLA (Naturally infected) bovis serum sample 4
[9] = VLA (Naturally infected) bovis serum sample 5
[10] = VLA (Naturally infected) bovis serum sample 6
[11] = VLA (Naturally infected) bovis serum sample 7
[12] = VLA (Naturally infected) bovis serum sample 8
[13] = VLA (Naturally infected) bovis serum sample 9
[14] = VLA (Naturally infected) bovis serum sample 10
[15] = VLA (Naturally infected) bovis serum sample 11
[16] = VLA (Naturally infected) bovis serum sample 12
[17] = VLA (Naturally infected) bovis serum sample 13
[18] = VLA (Naturally infected) bovis serum sample 14
[19] = VLA (Naturally infected) bovis serum sample 15
[20] = VLA (Naturally infected) bovis serum sample 16
[21] = VLA (Naturally infected) bovis serum sample 17
[22] = VLA (Naturally infected) bovis serum sample 18
[23] = VLA (Naturally infected) bovis serum sample 19
[24] = VLA (Naturally infected) bovis serum sample 20
[25] = VLA (Non-vaccinates) serum sample 21
[26] = VLA (Non-vaccinates) serum sample 22
[27] = VLA (Non-vaccinates) serum sample 23
[28] = VLA (Non-vaccinates) serum sample 24
[29] = VLA (Non-vaccinates) serum sample 25
[30] = VLA (Non-vaccinates) serum sample 26
[31] = VLA (Non-vaccinates) serum sample 27
[32] = VLA (Non-vaccinates) serum sample 28
[33] = VLA (Non-vaccinates) serum sample 29
[34] = VLA (Non-vaccinates) serum sample 30
[35] = VLA (Non-vaccinates) serum sample 31
[36] = VLA (Non-vaccinates) serum sample 32
[37] = VLA (Non-vaccinates) serum sample 33
[38] = VLA (Non-vaccinates) serum sample 34
[39] = VLA (Non-vaccinates) serum sample 35
[40] = VLA (Non-vaccinates) serum sample 36

SMILES: CCCCCCCCCCCCCCCCCCCCCC[C@@H](C(=O)OCC1OC(OC2OC(CO)C(O)C(O)C2O)C(O)C(O)C1O)[C@H](O)CCCCCCCCCCCCCCCC[C@H]1C[C@@H]1[C@@H](C)CCCCCCCCCCCCCCCCCCC(=O)O[C@@H](C)CCCCCCCCCCCCCCCCCC (stereo partly shown) [Antigen G]
- optical density measurements at 492 nm ([1]; serum MAP (Naturally infected)): 4.38
- optical density measurements at 492 nm [1, 4]: 4.38
- optical density measurements at 492 nm [2, 5]: 3.68
- optical density measurements at 492 nm [2, 6]: 2.78
- optical density measurements at 492 nm [2, 7]: 4.06
- optical density measurements at 492 nm [2, 8]: 0.63
- optical density measurements at 492 nm [2, 9]: 1.04
- optical density measurements at 492 nm [2, 10]: 0.88
- optical density measurements at 492 nm [2, 11]: 2.34
- optical density measurements at 492 nm [2, 12]: 1.39
- optical density measurements at 492 nm [2, 13]: 0.40
- optical density measurements at 492 nm [2, 14]: 0.52
- optical density measurements at 492 nm [2, 15]: 1.63
- optical density measurements at 492 nm [2, 16]: 1.54
- optical density measurements at 492 nm [2, 17]: 0.26
- optical density measurements at 492 nm [2, 18]: 0.22
- optical density measurements at 492 nm [2, 19]: 0.15
- optical density measurements at 492 nm [2, 20]: 0.15
- optical density measurements at 492 nm [2, 21]: 0.11
- optical density measurements at 492 nm [2, 22]: 0.27
- optical density measurements at 492 nm [2, 23]: 0.11
- optical density measurements at 492 nm [2, 24]: 1.54
- optical density measurements at 492 nm [3, 25]: 0.37
- optical density measurements at 492 nm [3, 26]: 0.14
- optical density measurements at 492 nm [3, 27]: 0.24
- optical density measurements at 492 nm [3, 28]: 0.51
- optical density measurements at 492 nm [3, 29]: 0.27
- optical density measurements at 492 nm [3, 30]: 0.82
- optical density measurements at 492 nm [3, 31]: 0.55
- optical density measurements at 492 nm [3, 32]: 0.46
- optical density measurements at 492 nm [3, 33]: 1.58
- optical density measurements at 492 nm [3, 34]: 0.16
- optical density measurements at 492 nm [3, 35]: 1.99
- optical density measurements at 492 nm [3, 36]: 0.06
- optical density measurements at 492 nm [3, 37]: 0.10
- optical density measurements at 492 nm [3, 38]: 0.07
- optical density measurements at 492 nm [3, 39]: 0.07
- optical density measurements at 492 nm [3, 40]: 0.07

SMILES: CCCCCCCCCCCCCCCCCCCCCC[C@@H](C(=O)OCC1OC(OC2OC(COC(=O)[C@H](CCCCCCCCCCCCCCCCCCCCCC)[C@H](O)CCCCCCCCCCCCCCCC[C@H]3C[C@@H]3[C@@H](C)CCCCCCCCCCCCCCCCCCC(=O)O[C@@H](C)CCCCCCCCCCCCCCCCCC)C(O)C(O)C2O)C(O)C(O)C1O)[C@H](O)CCCCCCCCCCCCCCCC[C@H]1C[C@@H]1[C@@H](C)CCCCCCCCCCCCCCCCCCC(=O)O[C@@H](C)CCCCCCCCCCCCCCCCCC (stereo partly shown) [Antigen F]
- optical density measurements at 492 nm ([1]; serum MAP (Naturally infected)): 4.00
- optical density measurements at 492 nm [1, 4]: 1.44
- optical density measurements at 492 nm [2, 5]: 1.07
- optical density measurements at 492 nm [2, 6]: 0.67
- optical density measurements at 492 nm [2, 7]: 2.47
- optical density measurements at 492 nm [2, 8]: 0.67
- optical density measurements at 492 nm [2, 9]: 0.29
- optical density measurements at 492 nm [2, 10]: 0.18
- optical density measurements at 492 nm [2, 11]: 0.51
- optical density measurements at 492 nm [2, 12]: 2.23
- optical density measurements at 492 nm [2, 13]: 0.18
- optical density measurements at 492 nm [2, 14]: 0.24
- optical density measurements at 492 nm [2, 15]: 0.31
- optical density measurements at 492 nm [2, 16]: 1.08
- optical density measurements at 492 nm [2, 17]: 0.66
- optical density measurements at 492 nm [2, 18]: 0.23
- optical density measurements at 492 nm [2, 19]: 0.12
- optical density measurements at 492 nm [2, 20]: 0.62
- optical density measurements at 492 nm [2, 21]: 0.47
- optical density measurements at 492 nm [2, 22]: 0.52
- optical density measurements at 492 nm [2, 23]: 0.69
- optical density measurements at 492 nm [2, 24]: 1.08
- optical density measurements at 492 nm [3, 25]: 0.25
- optical density measurements at 492 nm [3, 26]: 0.25
- optical density measurements at 492 nm [3, 27]: 0.17
- optical density measurements at 492 nm [3, 28]: 0.21
- optical density measurements at 492 nm [3, 29]: 0.15
- optical density measurements at 492 nm [3, 30]: 3.66
- optical density measurements at 492 nm [3, 31]: 1.96
- optical density measurements at 492 nm [3, 32]: 0.36
- optical density measurements at 492 nm [3, 33]: 0.29
- optical density measurements at 492 nm [3, 34]: 0.26
- optical density measurements at 492 nm [3, 35]: 0.45
- optical density measurements at 492 nm [3, 36]: 0.06
- optical density measurements at 492 nm [3, 37]: 0.08
- optical density measurements at 492 nm [3, 38]: 0.11
- optical density measurements at 492 nm [3, 39]: 0.31
- optical density measurements at 492 nm [3, 40]: 0.12
